The results in this text go back to ChEMBL document CHEMBL3102855, “Synthesis of long-chain fatty acid derivatives as a novel anti-Alzheimer's agent” (Bioorg Med Chem Lett, 2014).

Each structure is given as a SMILES string. Activity calls are given as the source filed them. The calls are words filed in the database; no cut-off is given here.

This test has as its system Cortical neurone. As to the kind of experiment: Induction of dendrite extension in rat cortical neurons assessed as inhibition of amyloid beta (25 to 35)-induced neuronal degeneration at 1 uM after 4 days by fluorescence microscopic analysis. The test is classed as functional.
In the case of `CCCCC/C=C\CCCCCC/C=C\CCCCCCCCCCCCCCCCCCCCCC(=O)O`, the result was Active.
With `CCCCCCCCCCCCCCCCC/C=C\CCCCCCCCCCCCCCCCCCCCCC(=O)O`, the result was Active.
As for `CCCCCCC/C=C\CCCC/C=C\CCCCCCCCCCCCCCCCCCCCCC(=O)O`, the outcome was Active.
As to `CCCCCCCCCCCCCCCCCCCCCCCCCCCCCCCCCCCCC(=O)O`, the result was Active.
Consider `CCCCCCCCCCCCC/C=C\CCCCCCCCCCCCC(=O)O`, for which the result was Active.
As for `CCCCCCCCCC/C=C\C/C=C\CCCCCCCCCCCCCCCCCCCCCC(=O)O`, the outcome was Active.
Turning to `CCCCCCCCCCCCC/C=C\CCCCCCCCCCCCCO`, the result was Active.
On to `CC/C=C\CCCCCCCCC/C=C\CCCCCCCCCCCCCCCCCCCCCC(=O)O`, for which the outcome was Active.
Under `CCCCCCCCCCCCC/C=C\CCCCCCCCCCCCCCCCCCCCCCO` stands “Active”.
As for `CC/C=C\CCCCCCCCC/C=C\CCCCCCCCCCC(=O)O`, the result was Active.
For the molecule `CC/C=C\CCCCCCCCC/C=C\CCCCCCCCCCCCCCCCCCCCCCCCCCCCCC(=O)O`, the outcome was Active.
With `CCCCCCCCCCCCCCCCCCCCCCCCCCCC(=O)O`, the result was Active.
As for `CC/C=C\CCCCCCCCC/C=C\CCC(=O)O`, the result was Active.
In the case of `CC/C=C\CCCCCCCCC/C=C\CCCCCCCC(=O)O`, the result was Active.
Under `CCCCCCCCCC/C=C\CCCCCCCCCC(=O)O` stands “Active”; under `CCCCCCCCCCCCC/C=C\CCCCCCCCCCCCCCCCCCCCCC(=O)O`, “Active”.
As to `CCCCCCCCCCCCCCCCCCCCCC(=O)O`, the outcome was Active.
